The test concerns the target T1, Full length human recombinant HDAC6 protein (Homo sapiens, UniProt Q9UBN7).
T1 sequence (Q9UBN7 1-1215): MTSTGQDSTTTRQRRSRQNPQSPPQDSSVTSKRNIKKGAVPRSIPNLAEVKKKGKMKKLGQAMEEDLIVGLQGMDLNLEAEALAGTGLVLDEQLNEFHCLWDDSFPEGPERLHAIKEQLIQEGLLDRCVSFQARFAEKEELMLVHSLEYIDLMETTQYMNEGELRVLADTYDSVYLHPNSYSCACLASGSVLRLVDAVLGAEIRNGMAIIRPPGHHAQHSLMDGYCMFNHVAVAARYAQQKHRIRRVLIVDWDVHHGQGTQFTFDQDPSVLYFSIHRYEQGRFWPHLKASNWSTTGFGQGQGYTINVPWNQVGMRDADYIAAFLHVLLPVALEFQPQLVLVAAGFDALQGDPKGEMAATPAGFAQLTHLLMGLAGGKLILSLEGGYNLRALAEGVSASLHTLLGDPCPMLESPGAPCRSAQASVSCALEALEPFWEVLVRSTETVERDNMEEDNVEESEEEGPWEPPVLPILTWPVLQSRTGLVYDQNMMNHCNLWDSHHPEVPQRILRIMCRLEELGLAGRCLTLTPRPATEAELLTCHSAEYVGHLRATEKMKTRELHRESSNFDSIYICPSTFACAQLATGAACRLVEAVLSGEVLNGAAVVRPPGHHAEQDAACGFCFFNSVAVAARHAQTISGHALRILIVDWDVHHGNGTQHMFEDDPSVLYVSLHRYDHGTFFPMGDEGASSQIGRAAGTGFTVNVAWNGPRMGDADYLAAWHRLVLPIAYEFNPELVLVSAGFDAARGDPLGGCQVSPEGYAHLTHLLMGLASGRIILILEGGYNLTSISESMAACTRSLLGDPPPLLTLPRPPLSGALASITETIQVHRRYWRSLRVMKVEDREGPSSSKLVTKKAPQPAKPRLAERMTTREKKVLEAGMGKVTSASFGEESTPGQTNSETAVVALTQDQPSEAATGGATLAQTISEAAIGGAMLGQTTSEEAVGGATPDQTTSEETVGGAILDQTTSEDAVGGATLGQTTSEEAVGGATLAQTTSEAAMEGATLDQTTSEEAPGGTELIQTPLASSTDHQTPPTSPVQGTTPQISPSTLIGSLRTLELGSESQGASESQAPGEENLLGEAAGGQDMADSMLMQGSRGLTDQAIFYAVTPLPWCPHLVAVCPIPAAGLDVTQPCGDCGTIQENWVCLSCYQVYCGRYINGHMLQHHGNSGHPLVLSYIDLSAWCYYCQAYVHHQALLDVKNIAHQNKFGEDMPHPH
Description: In vitro histone deacetylase assay: enzymatic HDAC6 electrophoretic mobility shift assay. The class given is biochemical. Particulars: 1 nM enzyme, 2 μM peptide substrate RHKK(Ac)-NH2, 25° C., 12 concentrations; read-out: Inhibitory Concentration (IC50) Values against HDAC6, Activity Range. (In EMSA bound probe runs differently from free probe, usually more slowly.)

This note sets out measurements from US11891365B2, “3-alkyl-4-amido-bicyclic [4,5,0] hydroxamic acids as HDAC inhibitors” (Valo Health, Inc., priority 2015, dated 2024).

Each structure is given as a SMILES string.

For the compound `O=C(NO)c1ccc2c(c1)OCCN(C(=O)C1(c3ccccc3)CC1)C2` [N-hydroxy-4-(1-phenylcyclopropane-1-carbonyl)-2,3,4,5-tetrahydrobenzo[f][1,4]oxazepine-8-carboxamide], the IC50 is at most 100 nM.
Consider `C[C@H]1COc2cc(C(=O)NO)ccc2CN1C(=O)C1CCS(=O)(=O)C1` (stereo partly drawn) [(3S)-4-(1,1-dioxidotetrahydrothiophene-3-carbonyl)-N-hydroxy-3-methyl-2,3,4,5-tetrahydrobenzo[f][1,4]oxazepine-8-carboxamide], for which the IC50 is at most 100 nM.
Then `O=C(NO)c1ccc2c(c1)O[C@H]1C[C@@H]2N(C(=O)C2CCOCC2)C1` [(2S,5S)-N-hydroxy-4-(tetrahydro-2H-pyran-4-carbonyl)-2,3,4,5-tetrahydro-2,5-methanobenzo[f][1,4]oxazepine-8-carboxamide], with over 500 nM; and `COC[C@H]1CN(C(=O)C2CCOCC2)Cc2ccc(C(=O)NO)cc2O1` [(R)-N-hydroxy-2-(methoxymethyl)-4-(tetrahydro-2H-pyran-4-carbonyl)-2,3,4,5-tetrahydrobenzo[f][1,4]oxazepine-8-carboxamide], with 100 to 500 nM.
Turning to `CC(C)[C@@H]1CN(C(=O)C2(C)CCC2)Cc2ccc(C(=O)NO)cc2O1` [(R)-N-hydroxy-2-isopropyl-4-(1-methylcyclobutane-1-carbonyl)-2,3,4,5-tetrahydrobenzo[f][1,4]oxazepine-8-carboxamide], the IC50 fell in the range of 100 to 500 nM.
On to `CN(C)c1c(C(=O)N2CCOc3cc(C(=O)NO)ccc3C2)sc2ccccc12` [4-(3-(dimethylamino)benzo[b]thiophene-2-carbonyl)-N-hydroxy-2,3,4,5-tetrahydrobenzo[f][1,4]oxazepine-8-carboxamide], for which the IC50 is at most 100 nM.
In the case of `CC1(C(=O)N2CCOc3cc(C(=O)NO)ccc3C2)CCOCC1` [N-hydroxy-4-(4-methyltetrahydro-2H-pyran-4-carbonyl)-2,3,4,5-tetrahydrobenzo[f][1,4]oxazepine-8-carboxamide] it was at most 100 nM; in that of `C[C@H]1c2cc(C(=O)NO)ccc2OCCN1C(=O)C1CCOCC1` [(S)-N-hydroxy-5-methyl-4-(tetrahydro-2H-pyran-4-carbonyl)-2,3,4,5-tetrahydrobenzo[f][1,4]oxazepine-7-carboxamide], over 500 nM; in that of `C[C@H]1c2ccc(C(=O)NO)cc2OCCN1C(=O)C1(C)CCOCC1` [(S)-N-hydroxy-5-methyl-4-(4-methyltetrahydro-2H-pyran-4-carbonyl)-2,3,4,5-tetrahydrobenzo[f][1,4]oxazepine-8-carboxamide], at most 100 nM.
With `C[C@H]1COc2cc(C(=O)NO)ccc2CN1C(=O)C(C)(C)Cc1ccc(F)cc1` [(S)-4-(3-(4-fluorophenyl)-2,2-dimethylpropanoyl)-N-hydroxy-3-methyl-2,3,4,5-tetrahydrobenzo[f][1,4]oxazepine-8-carboxamide], the IC50 is at most 100 nM.
In the case of `O=C(NO)c1ccc2c(c1)OCCN(C(=O)C1(S(=O)(=O)c3ccccc3)CC1)C2` [N-hydroxy-4-(1-(phenylsulfonyl)cyclopropane-1-carbonyl)-2,3,4,5-tetrahydrobenzo[f][1,4]oxazepine-8-carboxamide] it was at most 100 nM; in that of `CC(C)(C(=O)N1CCOc2cc(C(=O)NO)ccc2C1)C1CCCCC1` [4-(2-cyclohexyl-2-methylpropanoyl)-N-hydroxy-2,3,4,5-tetrahydrobenzo[f][1,4]oxazepine-8-carboxamide], 100 to 500 nM.
Then `COc1cccc(C(C)(C)C(=O)N2CCOc3cc(C(=O)NO)ccc3C2)c1` [N-hydroxy-4-(2-(3-methoxyphenyl)-2-methylpropanoyl)-2,3,4,5-tetrahydrobenzo[f][1,4]oxazepine-8-carboxamide], with 100 to 500 nM; and `O=C(NO)c1ccc2c(c1)OCCN(C(=O)C1Cc3ccccc3C1)C2` [4-(2,3-dihydro-1H-indene-2-carbonyl)-N-hydroxy-2,3,4,5-tetrahydrobenzo[f][1,4]oxazepine-8-carboxamide], with at most 100 nM.
`O=C(NO)c1ccc2c(c1)OCCN(C(=O)C(Oc1ccccc1)c1ccccc1)C2` (centres unmarked) [N-hydroxy-4-(2-phenoxy-2-phenylacetyl)-2,3,4,5-tetrahydrobenzo[f][1,4]oxazepine-8-carboxamide]: the IC50 was in the range of 100 to 500 nM.
Then `O=C(NO)c1ccc2c(c1)OCCN(C(=O)Cc1cc(C(F)(F)F)cc(C(F)(F)F)c1)C2` [4-(2-(3,5-bis(trifluoromethyl)phenyl)acetyl)-N-hydroxy-2,3,4,5-tetrahydrobenzo[f][1,4]oxazepine-8-carboxamide], with 100 to 500 nM; and `O=C(NO)c1ccc2c(c1)OCCN(C(=O)CN1CCS(=O)(=O)CC1)C2` [4-(2-(1,1-dioxidothiomorpholino)acetyl)-N-hydroxy-2,3,4,5-tetrahydrobenzo[f][1,4]oxazepine-8-carboxamide], with over 500 nM.
Regarding `COC1(C(=O)N2Cc3ccc(C(=O)NO)cc3OC[C@@H]2C)CC1` [(S)-N-hydroxy-4-(1-methoxycyclopropane-1-carbonyl)-3-methyl-2,3,4,5-tetrahydrobenzo[f][1,4]oxazepine-8-carboxamide], the IC50 was at most 100 nM.
Consider `CCC(C(=O)N1CCOc2cc(C(=O)NO)ccc2C1)c1ccccc1` (centres unmarked) [N-hydroxy-4-(2-phenylbutanoyl)-2,3,4,5-tetrahydrobenzo[f][1,4]oxazepine-8-carboxamide], for which the IC50 was in the range of 100 to 500 nM.
Regarding `C[C@H]1CN(C(=O)C2(C)CCC2)Cc2ccc(C(=O)NO)cc2O1` [(S)-N-hydroxy-2-methyl-4-(1-methylcyclobutane-1-carbonyl)-2,3,4,5-tetrahydrobenzo[f][1,4]oxazepine-8-carboxamide], the IC50 lay in the range of 100 to 500 nM.
In the case of `C[C@H]1c2ccc(C(=O)NO)cc2OCCN1C(=O)[C@@H]1CCCOC1` [(S)-N-hydroxy-5-methyl-4-((R)-tetrahydro-2H-pyran-3-carbonyl)-2,3,4,5-tetrahydrobenzo[f][1,4]oxazepine-8-carboxamide] it was at most 100 nM.
On to `O=C(NO)c1ccc2c(c1)OCCN(C(=O)C1CC13CCNC3)C2` (centres unmarked) [N-hydroxy-4-(5-azaspiro[2.4]heptane-1-carbonyl)-2,3,4,5-tetrahydrobenzo[f][1,4]oxazepine-8-carboxamide], for which the IC50 is over 500 nM.
Then `Cc1nc(CC(=O)N2CCOc3cc(C(=O)NO)ccc3C2)cs1` [N-hydroxy-4-(2-(2-methylthiazol-4-yl)acetyl)-2,3,4,5-tetrahydrobenzo[f][1,4]oxazepine-8-carboxamide], with 100 to 500 nM.
Regarding `O=C(NO)c1ccc2c(c1)OCCN(C(=O)c1ccc(N3CCOCC3)cc1)C2` [N-hydroxy-4-(4-morpholinobenzoyl)-2,3,4,5-tetrahydrobenzo[f][1,4]oxazepine-8-carboxamide], the IC50 was in the range of 100 to 500 nM.
Consider `CC(C)[C@@H]1CN(C(=O)C2CCOCC2)Cc2ccc(C(=O)NO)cc2O1` [(R)-N-hydroxy-2-isopropyl-4-(tetrahydro-2H-pyran-4-carbonyl)-2,3,4,5-tetrahydrobenzo[f][1,4]oxazepine-8-carboxamide], for which the IC50 lay within 100 to 500 nM.
On to `O=C(NO)c1ccc2c(c1)OCCN(C(=O)C1(O)CC1)C2` [N-hydroxy-4-(1-hydroxycyclopropane-1-carbonyl)-2,3,4,5-tetrahydrobenzo[f][1,4]oxazepine-8-carboxamide], for which the IC50 was over 500 nM.
